Source: patent US9334246B2, “Substituted triazines for malaria treatment and chemoprophylaxis” (The United States of America, as represented by the …, priority 2013, dated 2016)

How the values were obtained:
Format in all cases: cell-based, Plasmodium falciparum
P. falciparum W2 = assay: Malaria SYBR Green Fluorescence Assay, W2 strain; conditions: for W2: SYBR Green Assay
P. falciparum C235 = assay: Malaria SYBR Green Fluorescence Assay, C235 strain; conditions: for C235: SYBR Green Assay
P. falciparum D6 = assay: Malaria SYBR Green Fluorescence Assay, D6 strain; conditions: for D6: SYBR Green Assay

Molecule	W2 (P. falciparum W2) [ng/mL]	C235 (P. falciparum C235) [ng/mL]	D6 (P. falciparum D6) [ng/mL]	W2 (SYBR Green Assay IC50) (P. falciparum W2) [µg/mL]	C235 (SYBR Green Assay IC50) (P. falciparum C235) [µg/mL]	D6 (SYBR Green Assay IC50) (P. falciparum D6) [µg/mL]
COc1ccccc1-c1nc(NCCCN2CCCC2)nc(C(Cl)(Cl)Cl)n1 [Cmpd 105]	73	93	145			
ClC(Cl)(Cl)c1nc(NCCCN2CCCC2)nc(-c2ccccc2)n1 [Cmpd 406]				0.035	0.089	0.077
COc1ncccc1Nc1nc(NCCN2CCCC2)nc(C(Cl)(Cl)Cl)n1 [Cmpd 350]	467	900	560			
COc1ccc(-c2nc(NCC3(N)CCOCC3)nc(C(Cl)(Cl)Cl)n2)cc1OC [Cmpd 319]	10	34	16			
CSc1ccc(-c2nc(NC(C)(C)CN)nc(C(Cl)(Cl)Cl)n2)cc1 [Cmpd 277]	364	312	406			
NC1(CNc2nc(-c3cccc(C(F)(F)F)c3)nc(C(Cl)(Cl)Cl)n2)CC1 [Compound 682, NC1(CNC2═NC(═NC(═N2)C2═CC(═CC═C2)C(F)(F)F)C(Cl)(Cl)Cl)CC1]	31	82	68			
CN(Cc1ccccc1c2cccnc2)c3nc(nc(n3)C(Cl)(Cl)Cl)c4ccc(cc4)C(Cl)(Cl)Cl [Compound 653]	272.1					
CCN1CCCC(Nc2nc(Cc3ccc(OC)cc3)nc(C(Cl)(Cl)Cl)n2)C1 (centres unmarked) [Cmpd 81]	601	992	633			
COC1═C2C═CC═CC2═C(C═C1)C1═NC(NC2CCN(CC(C)C)CC2)═NC(═N1)C(Cl)(Cl)Cl [Compound 703]	237	338	324			
CC(C)CN1CCC(CC1)NC1═NC(═NC(═N1)C(Cl)(Cl)Cl)C1═CC═C(Cl)C(Cl)═C1 [Compound 692]	24	43	32			
Clc1ccc(cc1Cl)c2nc(nc(n2)C(Cl)(Cl)Cl)N3CC4CC3CN4 [Compound 716]	335.2	439.4	540.4			
CN1CCCC1CCNc1nc(-c2ccc(N3CCCC3)cc2)nc(C(Cl)(Cl)Cl)n1 (centres unmarked) [Cmpd 370]						0.846
CC(C)(C)c1ccc(-c2nc(NCc3cccnc3)nc(C(Cl)(Cl)Cl)n2)cc1 [Cmpd 158]	92	324	260			
Cc1ccc(-c2nc(NCc3ccncc3)nc(C(Cl)(Cl)Cl)n2)cc1 [Cmpd 134]	453		521			
CSc1ccc(-c2nc(NCC3CCN(C(C)C)CC3)nc(C(Cl)(Cl)Cl)n2)cc1 [Cmpd 490]				0.049	0.067	0.091
FC(F)(F)OC1═CC═C(NC2═NC(═NC(NCCCN3CCCC3)═N2)C(Cl)(Cl)Cl)C═C1 [Compound 657]	390	731	535			
CCN1CCC(CNc2nc(-c3ccccc3)nc(C(Cl)(Cl)Cl)n2)CC1 [Cmpd 410]				0.035	0.113	0.103
ClC(Cl)(Cl)c1nc(NCCc2cnccn2)nc(-c2ccccc2)n1 [Cmpd 540]				0.088	0.213	0.151
CN1CCN(c2nc(-c3ccccc3)nc(C(Cl)(Cl)Cl)n2)CC1 [Cmpd 239]	125	158	192			
CC(C)(C)c1ccc(cc1)c2nc(nc(n2)C(Cl)(Cl)Cl)N3CCCN(CCO)CC3 [Compound 738]	60.48	239.9				
CN1CCC(Nc2nc(-c3ccccc3[N+](=O)[O-])nc(C(Cl)(Cl)Cl)n2)CC1 [Cmpd 550]				0.02059	0.03585	0.04805
COc1cccc(Cc2nc(NCCN3CCCC3)nc(C(Cl)(Cl)Cl)n2)c1 [Cmpd 82]	805					
OCCN1CCCN(c2nc(-c3ccc(N4CCCC4)cc3)nc(C(Cl)(Cl)Cl)n2)CC1 [Cmpd 465]				0.222	0.498	
CS(=O)(=O)c1ccc(-c2nc(NCCc3ccccn3)nc(C(Cl)(Cl)Cl)n2)cc1 [Cmpd 180]	478		819			
COc1ccc(-c2nc(N3CCCN(C)CC3)nc(C(Cl)(Cl)Cl)n2)cc1OC [Cmpd 398]				0.638		
NC1(CNc2nc(-c3ccccc3)nc(C(Cl)(Cl)Cl)n2)CC1 [Compound 677, NC1(CNC2═NC(═NC(═N2)C2═CC═CC═C2)C(Cl)(Cl)Cl)CC1]	527	910				
ClC(Cl)(Cl)c1ccc(C(Cl)(Cl)Cl)cc1.FC(F)(F)c1cccc(-c2nc(NCCCN3CCCC3)nc(C(Cl)(Cl)Cl)n2)c1 [Cmpd 602]				0.853		
ClC(Cl)(Cl)c1nc(NCc2ccccn2)nc(-c2ccc(-c3ccccc3)cc2)n1 [Cmpd 250]	721	858				
